pIC50: −log10 of the molar value. “And” between values parts separate entries of the source, which are not always exact repeats. Equal entries are not always repeated. Strand notation (5' to 3'): a small letter for the sugar, then the base; units joined by * are phosphorothioate-linked, units joined directly phosphodiester-linked; [ ] holds rarer units or linkages, { } end groups; capitals alone tell only the bases. k = constrained ethyl (cEt); [5mC] = 5-methylcytosine; d = 2'-deoxy (DNA)
Legend:
human SMAD7 mRNA [1] = assay: Antisense inhibition of human SMAD7 mRNA expression in Hep3B cells by 3-10-3 cEt gapmers, 10,000 nM, electroporation (Example 2); format: cell-based; details: approximately 24 hours
Summary of the method: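 Hep3B, 20,000 cells/well; electroporation, 10,000 nM ASO; ~24 h. Readout: SMAD7 mRNA by qRT-PCR (RTS5062), RIBOGREEN-normalised; % inhibition vs untreated.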

human SMAD7 mRNA [2] = assay: Dose-dependent inhibition of human SMAD7 mRNA expression in Hep3B cells (Example 3, Study 1 and 2); format: cell-based; details: electroporation; for % inhibition of SMAD7 mRNA expression: approximately 16 hours; for pIC50: Study 2 (740-20000 nM)
Summary of the method: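 Hep3B cells, 20,000 per well, electroporated with antisense oligonucleotide at 0.31, 1.25, 5.00 or 20.00 μM (first series) or 0.74, 2.22, 6.67 or 20.00 μM (second series). After ~16 h, SMAD7 mRNA measured by RT-qPCR (RTS5062), normalised to RIBOGREEN total RNA. Percent inhibition vs untreated cells; IC50 derived.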

[3] = Hep3B cells, electroporation with 10,000 nM antisense oligonucleotide, SMAD7 mRNA by RT-PCR (RTS5062), relative to untreated control cells
[4] = 740 nM, Study 2, relative to untreated control cells
[5] = Hep3B cells, 10,000 nM antisense oligonucleotide, electroporation, RT-PCR primer probe set RTS5062, relative to untreated control cells
[6] = SMAD7 mRNA, Hep3B cells, 10,000 nM antisense oligonucleotide, electroporation, primer probe set RTS5062, relative to untreated control cells

Substance	% Inhibition (human SMAD7 mRNA [1]; [3]) [%]	% inhibition of SMAD7 mRNA expression (human SMAD7 mRNA [2]; [4]) [%]	% inhibition of SMAD7 mRNA expression (human SMAD7 mRNA [2]; 2220 nM, Study 2) [%]	% inhibition of SMAD7 mRNA expression (human SMAD7 mRNA [2]; 6670.0 nM, Study 2) [%]	% inhibition of SMAD7 mRNA expression (human SMAD7 mRNA [2]; 20000.0 nM, Study 2)	pIC50 (human SMAD7 mRNA [2])	% Inhibition (human SMAD7 mRNA [1]; [5]) [%]	% inhibition of SMAD7 mRNA expression (human SMAD7 mRNA [1]; Hep3B cells, electroporation with 10,000 nM antisense oligonucleotide, primer probe set RTS5062, relative to untreated control cells) [%]	% Inhibition (human SMAD7 mRNA [1]; [6]) [%]
799980 (k[5mC]*k[5mC]*kA*dA*d[5mC]*dG*dG*dT*dT*dG*d[5mC]*d[5mC]*dT*k[5mC]*kA*kT; antisense) [compound 799980]	78	22	22	51	61%	4.89			
800010 (kG*kT*kT*dA*dT*dT*dT*dA*dA*dT*dT*dA*d[5mC]*k[5mC]*k[5mC]*kT; antisense) [compound 800010]		33	13	47	59%	5.22	69		
800025 (kA*kG*kT*dA*d[5mC]*dA*dA*dG*dG*dA*d[5mC]*dT*dA*kA*kG*kG; antisense) [compound 800025]	65	0	42	55	74%	5.22			
800031 (kA*kG*kA*dA*dA*d[5mC]*dA*d[5mC]*dA*dG*dT*dT*d[5mC]*k[5mC]*k[5mC]*kT; antisense) [compound 800031]		10	39	57	69%	5.10	52		
800048 (antisense kT*kG*kG*dA*dA*dA*dG*dG*dA*dA*dG*dA*d[5mC]*kT*k[5mC]*kG) [compound 800048]	64	0	31	58	58%	5.40			
800066 (antisense kT*kG*kT*dT*dT*dT*dA*dA*dG*dT*dA*dG*d[5mC]*kA*kG*k[5mC]) [compound 800066]	63	7	42	62	82%	5.05			
800109 (antisense kA*k[5mC]*kA*dG*d[5mC]*d[5mC]*dA*d[5mC]*dA*dA*dG*dT*d[5mC]*kA*k[5mC]*kA) [compound 800109]	86				71% and 67% and 93% and 97%	6.00		75	88
829734 (antisense kT*k[5mC]*k[5mC]*dG*d[5mC]*dA*d[5mC]*dA*d[5mC]*d[5mC]*dA*dT*dG*kA*kA*kG) [compound 829734]		20	40	69	68%	5.40			71
829762 (antisense k[5mC]*k[5mC]*kT*dT*d[5mC]*dA*dG*dA*dT*d[5mC]*d[5mC]*dG*d[5mC]*k[5mC]*kT*k[5mC]) [compound 829762]		27	41	59	78%	< 4.70			67
829767 (antisense kG*kG*kA*dG*dG*d[5mC]*dA*d[5mC]*dG*d[5mC]*dG*dG*dT*kG*k[5mC]*kG) [compound 829767]		5	6	36	49%	5.52			66
829776 (antisense kG*k[5mC]*kG*dA*dG*dT*dA*dG*dG*dA*d[5mC]*dG*dA*kG*kG*kG) [compound 829776]		26	40	66	81%	5.30			64
